Results on five molecules are retold here after patent US4311702A, “Imidazo[1,2-a]pyridines having anti-ulcer activity” (Poli Industria Chimica S.p.A., priority 1979, dated 1982).

Assay [1] concerns cold and restraint gastric ulcers. The assay can be described thus: Cold and restraint gastric ulcers in the rat. In kind it is in vivo, rat (Wistar female). The following applies: po, read-out: Cold and restraint gastric ulcers ED50. The method, then: cold and restraint gastric ulcers induced in the rat following the under mentioned method originally described by E. C. Senay and R. J. Levine in Proc. Soc.
Wistar female rats fasting from the previous evening are introduced in plastic tubes having such a diameter to exert a light constriction and immediately after they are put in a thermoregulated ambient at about 4° C. Two hours later the rats are sacrificed under ethereal anesthesia and their stomachs are examined to ascertain the presence of ulcers.
The ulcer index of each stomach is determined, multiplying the number of gastric lesions of any kind by a corresponding arbitrary value (petechiae=0.5; punctiform ulcer=1; linear ulcer<2 mm=2; linear ulcer>2 mm=3) and adding the partial scores. Rats are treated with the compound under study half an hour before cold exposure.

Assay [2] deals with gastric secretion (hydrochloric acid). Description: Activity on gastric secretion in Shay rats (total acidity). In kind it is in vivo, rat (Wistar male). The following applies: Rattus norvegicus, read-out: Shay rats total acidity ED50. The protocol:
Wistar male rats, weighing 160-200 g, starved for 24 hours are treated orally with the compound under study after pylorus ligation under light ethereal anesthesia. 4 hours later rats are anesthetized with ether and after oesophagus ligation, the stomachs are removed and the contents collected. After centrifugation of the gastric juice, the quantity of hydrochloric acid is determined by titration with 0.01 N Sodium hydroxide, using phenolphthalein as indicator.

Assay [3] deals with acetylsalicylic acid and pylorus ligation gastric ulcers. The assay can be described thus: Acetylsalicylic acid and pylorus ligation gastric ulcers in the rat. Particulars: read-out: Acetylsalicylic acid and pylorus ligation gastric ulcers ED50. It counts as in vivo, rat (Wistar male). The method, then: Wistar male rats, weighing 160-200 g, fasting from the previous evening are administered intraduodenum with the compound under study immediately after pylorus ligation under light ethereal anesthesia. Two hours after treatment rats receive orally 50 mg/kg of acetylsalicylic acid, dissolved in 5% gum arabic solution. An hour later rats are sacrificed under ether anesthesia and stomachs examined for presence of ulcers.

In assay [4] the test system is indomethacin gastric ulcers. Description: Indomethacin gastric ulcers in the rat. It counts as in vivo, rat (Wistar male). The following applies: po, read-out: Indomethacin gastric ulcers ED50. The protocol:
indomethacin gastric ulcers, induced in the rat following the under mentioned method originally described by Y. H. Lee, K. W. Mollison, W. C. Cheng in Arch. Int. Pharmacodyn.
Wistar male rats, weighing 160-200 g, starved for 24 hours, are administered endoperitoneally with 30 mg/kg of indomethacin in 0.6% aqueous suspension of 1% gum arabic solution and immediately after they are treated orally with the compound under study. 5 hours later animals are sacrificed under ethereal anesthesia, the stomachs are removed, open along the great curvature and examined for the presence of ulcers. The ulcer index is expressed in terms of square root of the number of gastric ulcers.

[5] abbreviates: os, half an hour before cold exposure, dose reducing the ulcer index by 50% compared with controls.
Where [6] appears, read: i.d. (Table 2 head), 4 hours after pylorus ligation, dose reducing secretion of hydrochloric acid by 50% compared with controls.
[7] abbreviates: intraduodenum immediately after pylorus ligation, dose reducing the number of ulcers by 50% compared with controls.
The mark [8] stands for this setting: os, 30 mg/kg indomethacin endoperitoneally, dose reducing the ulcer index by 50% compared with controls.

Molecules are shown by their SMILES. Where two headings read alike, the source gives them in different places.

Regarding `CNC(=NC#N)NCCSCc1cnc2ccccn12` [Ia], the median effective dose (ED50) – broadly, the dose that gives a 50% effect, or the effect in half of the subjects – in assay [1] (setting [5]) stood at 2.8 mg/kg; in assay [2] (setting [6]) it was 1.8 mg/kg; in assay [3] (setting [7]), 7.3 mg/kg; in assay [4] (setting [8]), 3.4 mg/kg.
The like results for `CNC(=NC#N)NCCSCc1c(C)nc2ccccn12` [Ib] were, in that order, 1.5 mg/kg, 1.1 mg/kg, 2.1 mg/kg and 0.7 mg/kg.
On the same counts, the results for `CNC(=NC#N)NCCSC(C)c1cnc2ccccn12` (centres unmarked) [Ic] are 1.9 mg/kg, 2.8 mg/kg, 5.7 mg/kg and 3.3 mg/kg.
Take `CNC(=NC#N)NCCSC(C)c1c(C)nc2ccccn12` (centres unmarked) [Id]: the ED50 in assay [1] (setting [5]) was found to be 0.7 mg/kg; in assay [2] (setting [6]), 0.6 mg/kg; in assay [3] (setting [7]) it was 0.9 mg/kg; in assay [4] (setting [8]), 0.9 mg/kg.
With `CN/C(=N/CCSCc1nc[nH]c1C)NC#N` [[…], Cimetidine, reference compound], the median effective dose (ED50) in assay [1] worked out at 6.3 mg/kg; in assay [2] (4 h), 0.6 mg/kg; in assay [3], 3.8 mg/kg; in assay [4], 2.4 mg/kg.
